# From US8653049B2, “Normuramyl glycopeptide compounds” (priority 2008, dated 2014)
# Where “and” joins values, the source holds several entries; their conditions need not be identical. Identical values can stand only once.
# What was measured:
# Salmonella enteritidis = experiment: Stimulation of innate immunity against Salmonella Enteritidis
# [1] = rabbits, liposomal preparations s.c. 100 nmol/kg, 3 rabbits per group; passes if below 1.1° C.
# Method in brief: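 Pyrogenicity was tested in New Zealand albino rabbits (3 per group) given liposomal preparations at 100 nmol/kg s.c., with temperature taken at 1, 2, 3, 4, 6 and 24 h. Controls were empty liposomes, liposomal and free MDP (50.7 nmol/kg) and B30-norAbu-MDP. A pass required summed ΔTmax below 1.1 °C.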
# [2] = tested on: Trichophyton mentagrophytes TM 179; experiment: Adjuvant activity for hsp60 DNA vaccine against ringworm; format: in vivo, guinea pigs; parameters: key: semi-quantitative 0 to +++ method (where U=ulceration) for evaluation of dermal reactions, i.e. pathological lesions; semi-quantitative 0 to +++ method (where U=ulceration) for evaluation of dermal reactions, i.e. pathological lesions; semi-quantitative 0 to +++ method (where U=ulceration) for evaluation of dermal reactions, i.e. pathological lesions; semi-quantitative 0 to +++ method (where U=ulceration) for evaluation of dermal reactions, i.e. pathological lesions; U=ulceration; conditions: per animal
# S. typhimurium = experiment: Stimulation of innate immunity against Salmonella Typhimurium; format: in vivo, BALB/c mice; conditions: liposomal preparations
# From the text: Test compounds at doses of 5, 10, 25, 50, 100 and 200 nmol per mouse were applied in., s.c., i.v., or p.o. 3 and 1 days before experimental infection (10 animals per group). Various organs (intestines, liver, spleen, lungs) were examined for the presence of salmonellae on day 30 post infection. Results were expressed as numbers of colony forming units (CFU) of S. typhimurium per 1 gram of tissue. Statistically significant differences in numbers of CFU between the individual experimental groups were calculated by one-way analysis of variance.
# C. albicans strain 2091 = experiment: Stimulation of innate immunity to Candida albicans infection, survival; conditions: s.c. 24 h after i.v. infection, vs PBS control, FIG. 20
# [3] = liposomal, 20 nmol per dose p.o. 72 and 24 h before infection (LD50), 5 mice
# [4] = group 1: 200 μg adjuvant at −48 h + 20 μg DNA
# [5] = group 2: 200 μg adjuvant at −24 h + 20 μg DNA
# [6] = group 3: 200 μg adjuvant at 0 h + 20 μg DNA
# [7] = group 4: 200 μg adjuvant at +24 h + 20 μg DNA
smiles,measurement,setting,value
CCCCCCCCCCCCCCC(CCCCCCCCCCCCCC)C(=O)OC[C@H]1OC(O)[C@H](NC(C)=O)[C@@H](OCC(=O)N[C@@H](CC)C(=O)N[C@H](CCC(=O)O)C(N)=O)[C@@H]1O (stereo partly shown) [B30-norAbu-MDP],protective effect / survival rate in S. Enteritidis infection,Salmonella enteritidis; 0 or 1 case of death by day 12,good protective effects
same,Day 6 Intest.: clear/infected/dead,Salmonella enteritidis; [3],5/0/0
same,Day 6 Liver: clear/infected/dead,Salmonella enteritidis; [3],4/1/0
same,Day 6 Lungs: clear/infected/dead,Salmonella enteritidis; [3],5/0/0
same,Day 6 Spleen: clear/infected/dead,Salmonella enteritidis; [3],4/1/0
same,Day 12 Intest.: clear/infected/dead,Salmonella enteritidis; [3],4/0/1
same,Day 12 Liver: clear/infected/dead,Salmonella enteritidis; [3],4/0/1
same,Day 12 Lungs: clear/infected/dead,Salmonella enteritidis; [3],4/0/1
same,Day 12 Spleen: clear/infected/dead,Salmonella enteritidis; [3],4/0/1
same,+ΔTmax (Sum of ΔTmax),[1],0.5 °C
same,Skin reaction Day 12,[2]; group 1: 200 μg adjuvant at −48 h + 20 μg DNA electroporation prime and boost,+ and ++
same,Skin reaction Day 21,[2]; [4],+++ (2×) and ++ (2×)
same,Skin reaction Day 28,[2]; [4],+
same,Skin reaction Day 12,[2]; group 2: 200 μg adjuvant at −24 h + 20 μg DNA electroporation prime and boost,+++ (2×) and ++
same,Skin reaction Day 21,[2]; [5],++ (2×) and + (2×)
same,Skin reaction Day 28,[2]; [5],+ (2×) and 0
same,Skin reaction Day 12,[2]; group 3: 200 μg adjuvant at 0 h + 20 μg DNA electroporation prime and boost,+++ and + (2×)
same,Skin reaction Day 21,[2]; [6],+
same,Skin reaction Day 28,[2]; [6],0
same,Skin reaction Day 12,[2]; group 4: 200 μg adjuvant at +24 h + 20 μg DNA electroporation prime and boost,+++ and + (2×)
same,Skin reaction Day 21,[2]; [7],++
same,Skin reaction Day 28,[2]; [7],+ (2×) and 0 (2×)
same,induction of immune responses in intestines,S. typhimurium,able to induce immune responses in intestines
same,survival time and survival rate in C. albicans infection,C. albicans strain 2091; listed as free (non-liposomal) B30-norAbuMDP,lesser effect
same,survival time and survival rate in C. albicans infection,C. albicans strain 2091; listed as free B30-Nor-abuMDP,No effect
